Assay in all cases: NCI-60 cell line screen, 48 h
Experiment [1] has as its system 786-0 renal.
The test system of experiment [2] is T-47D breast.
Experiment [3] concerns OVCAR-4 ovarian.
Experiment [4] deals with MDA-MB-435.
Experiment [5] has as its system NCI-H522 lung.
The test system of experiment [6] is SF-539 CNS.
In experiment [7] the test system is SF-295 CNS.
The subject of experiment [8] is SNB-75 CNS.
Experiment [9] relates to RPMI-8226 leukemia.
Experiment [10] deals with A498 renal.

Where “and” joins values, the source holds several entries; their conditions need not be identical. Identical values can stand only once.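 Cultured in 96-well plates, cells were exposed to test compound for 48 hours across five concentrations. GI50: concentration for 50% inhibition of growth. TGI denotes the concentration required for complete inhibition of growth.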

With `CC1=CC2(O)OC3(CC2=C(C)C)C(C)CCC13` (centres undefined), the TGI in [1], in experiment [2], in [3], in experiment [4], in experiment [5] and in [6] was above 100 µM throughout. The TGI in experiment [7], in experiment [8], in experiment [9] and in experiment [10] was above 100 µM throughout.

On to `CN(C)CCOC1(Cc2ccc(Cl)cc2Cl)CCC(C(C)(C)C)CC1` (centres undefined), for which the TGI in experiment [1] was 3.33 µM and 2.98 µM; in [2], 4.42 µM and 4.24 µM; in experiment [3], 3.87 µM and 3.85 µM; in experiment [4], 2.89 µM and 3.18 µM; in experiment [5], 3.44 µM and 3.85 µM; in experiment [6], 14.5 µM and 3.46 µM. Also, the TGI in [7] was 3.2 µM and 3.41 µM; in [8], 3.89 µM and 7.39 µM; in [9], 4.92 µM and 5.42 µM; in [10], 5.18 µM and 3.95 µM. In addition, the GI50 in experiment [2] was 1.92 µM and 2.09 µM; in experiment [8], 2.52 µM; in experiment [10] it was 2.07 µM.

On to `C=C1CC2(OC1=O)c1ccccc1C=Cc1ccccc12`, for which the TGI in experiment [1] worked out at 6.16 µM; in [2], 4.37 µM; in experiment [3], 11.7 µM; in experiment [4], 3.37 µM; in experiment [5], 3.35 µM; in experiment [6], 6.72 µM. Moreover, the TGI came to 32.1 µM in experiment [7], 20.2 µM in experiment [8], 8.68 µM in [9] and 25 µM in experiment [10].

Turning to `CC1=CCC[C@@](C)(O)[C@@H]2C[C@H]3C(CSc4ccccc4)C(=O)O[C@H]3[C@@H](O2)[C@H](C)CCC1` (some centres undefined), the TGI in [1] is 67.5 µM; in experiment [2] it was 93.7 µM; in experiment [3], 45 µM; in experiment [4], 72 µM; in experiment [5], 35.9 µM; in experiment [6], 30.9 µM. For the same molecule, the TGI in experiment [7] came out at 25.3 µM; in experiment [8], 31.1 µM; in experiment [9], 84 µM; in experiment [10] it was 45 µM.

Consider `CN(C)c1ncnc2c1ncn2C1C=CC(COS(N)(=O)=O)C1` (centres undefined), for which the TGI in experiment [1], in [2], in [3], in [4], in [5] and in experiment [6] was above 100 µM throughout. For the same molecule, the TGI in experiment [7], in experiment [8], in experiment [9] and in experiment [10] was above 100 µM each time.

Take `C#CCCOC1(OC)N=NC(C)(C)O1` (centres undefined): the TGI in experiment [1], in experiment [2], in experiment [3], in [4], in [5] and in experiment [6] was above 100 µM each time. Moreover, the TGI in [7], in experiment [8], in experiment [9] and in [10] was above 100 µM each time.

On to `CC1(C)OC(=O)C(C)(C)OC1=O`, for which the TGI in [1], in experiment [2], in experiment [3], in experiment [4], in [5] and in experiment [6] was above 100 µM in each case. Besides, the TGI in [7], in [8], in [9] and in experiment [10] was above 100 µM in each case.

On to `COc1ccc(OC)c(NC(=O)C(=O)Nn2c(=S)[nH]c3ccccc3c2=O)c1`, for which the TGI in experiment [1], in experiment [2], in experiment [3], in [4], in experiment [5] and in experiment [6] was above 100 µM in each case. In addition, the TGI in experiment [7], in experiment [8], in experiment [9] and in [10] was above 100 µM in each case.

Regarding `COc1cc2c(cc1OC)C1C(O)C(OC)C=C3CC[N+](C)(C2)C31` (centres undefined), the TGI in experiment [1], in [2], in experiment [3], in experiment [4], in experiment [5] and in experiment [6] was above 100 µM each time. For the same molecule, the TGI in experiment [7], in [8], in experiment [9] and in experiment [10] was above 100 µM in each case.

As for `O=[N+]([O-])/C(Cl)=C(\Nc1ccccc1)C(Cl)=C(Cl)Cl`, the TGI in experiment [1] was above 100 µM; in experiment [2], above 100 µM; in [3], above 100 µM; in experiment [4] it was 35.1 µM; in [5] it was above 100 µM; in experiment [6], 47.4 µM. Further, the TGI in [7] is 94 µM; in [8], 20.5 µM; in [9], 78.9 µM; in experiment [10], 65.4 µM.

On to `CCC(CC)C(=O)OC[n+]1cccc(-c2c(COC(=O)NC(C)C)c(COC(=O)NC(C)C)c3n2CCC3)c1`, for which the TGI in [1], in [2], in experiment [3], in experiment [4], in [5] and in experiment [6] was above 100 µM in each case. The TGI in [7], in [8], in [9] and in experiment [10] was above 100 µM throughout.

In the case of `CC(=O)n1nc(-c2nc3ccccc3nc2Cl)cc1Cl`, the TGI in experiment [1] was 78.8 µM; in experiment [2], above 100 µM; in experiment [3] it was 53.3 µM; in [4], 19 µM; in [5] it was 31.2 µM; in [6], 10.1 µM. Moreover, the TGI was above 93.2 µM in experiment [7], 76.6 µM in experiment [8], above 100 µM in experiment [9] and above 100 µM in experiment [10].

Regarding `COc1ccc2nc3cc([N+](=O)[O-])ccc3c(NNc3ccc(Cl)cc3)c2c1`, the TGI was 53.6 µM in experiment [1]; above 100 µM in experiment [2]; above 100 µM in experiment [3]; above 100 µM in [4]; 83.7 µM in experiment [5]; 97.5 µM in experiment [6]. The TGI in [7] was above 100 µM; in experiment [8], above 100 µM; in experiment [9], 78.7 µM; in experiment [10], 0.221 µM.

Turning to `NC1=CC(C(=O)c2ccncc2)c2nc3ccccc3nc21` (centres undefined), the TGI in experiment [1], in experiment [2], in [3], in experiment [4], in [5] and in [6] was above 100 µM each time. In addition, the TGI in experiment [7], in [8], in experiment [9] and in [10] was above 100 µM each time.

In the case of `CO[C@@](c1ccccc1)(c1nc(C#N)c(N)o1)C(F)(F)F`, the TGI in [1] was above 100 µM; in experiment [2], above 100 µM; in experiment [3], above 100 µM; in [4], above 100 µM; in experiment [5], 85.9 µM; in [6] it was above 100 µM. Moreover, the TGI in experiment [7], in experiment [8], in experiment [9] and in [10] was above 100 µM throughout.

As to `Cc1ccc(S(=O)(=O)NC(=O)NCC(=O)NCC(=O)O)cc1`, the TGI in experiment [1], in experiment [2], in [3], in experiment [4], in experiment [5] and in experiment [6] was above 100 µM throughout. Also, the TGI in experiment [7], in experiment [8], in experiment [9] and in experiment [10] was above 100 µM in each case.

In the case of `Cc1[nH]n(-c2nc3c(c(=O)[nH]2)CCC3)c(=O)c1CCO`, the TGI in [1], in experiment [2], in [3], in experiment [4], in experiment [5] and in experiment [6] was above 100 µM each time. The TGI was above 100 µM in experiment [7], 46.5 µM in [8], above 100 µM in [9] and above 100 µM in experiment [10].

Regarding `Cc1cnc2[nH]c(-c3ccc(F)cc3)cc(=O)c2c1`, the TGI in experiment [1] was above 100 µM; in [2], above 100 µM; in experiment [3] it was above 100 µM; in experiment [4], 12.6 µM; in [5], 50.4 µM; in experiment [6], above 100 µM. The TGI in [7] was 99 µM; in experiment [8], 62.8 µM; in experiment [9], above 73.3 µM; in experiment [10], 81.3 µM.

Consider `COc1ccc(CNc2nc(NCc3ccc(OC)cc3)nc(NC(C)C)n2)cc1`, for which the TGI is 32.9 µM in experiment [1]; above 100 µM in experiment [2]; above 100 µM in [3]; 11.2 µM in experiment [4]; 10.6 µM in experiment [5]; 27.3 µM in [6]. In addition, the TGI in experiment [7] is above 100 µM; in experiment [8], above 100 µM; in experiment [9], 5.3 µM; in experiment [10] it was 47.1 µM.

As for `C[C@@H]1CC[C@H]2C(COC/C=C/COCC3=C(C(F)(F)F)O[C@@H]4O[C@@]5(C)CC[C@H]6[C@H](C)CC[C@@H]3[C@@]46OO5)=C(C(F)(F)F)O[C@@H]3O[C@@]4(C)CC[C@@H]1[C@]32OO4`, the TGI is above 100 µM in experiment [1]; above 100 µM in experiment [2]; above 100 µM in [3]; above 100 µM in [5]; above 21.4 µM in [6]; above 100 µM in [8]. Further, the TGI in experiment [9] and in experiment [10] was above 100 µM throughout. For the same molecule, the GI50 is 0.518 µM in [3]; below 0.012 µM in experiment [4]; 0.327 µM in experiment [5]; below 0.0242 µM in [6]; below 0.0244 µM in experiment [7]; 12.7 µM in [8]. Besides, the GI50 was below 0.01 µM in [9] and 1.54 µM in experiment [10].

(Values after PubChem BioAssay (NCI).)
